This note sets out measurements from patent US12048309B2, “Materials and methods for preventing and dispersing exopolysaccharide-containing biofilms involving Listeria monocytogenes” (University of Wyoming, priority 2021, dated 2024).

This experiment has as its system EPS-biofilm formation by L. monocytogenes. The experiment in a line: Test of major ingredients of red maple (Acer rubrum) methanol extract for preventing EPS-biofilm formation. Type of experiment: cell-based, Listeria monocytogenes. The settings on record: ingredients of methanol extract of dried red maple stems. The protocol:
To identify active components responsible for preventing EPS-biofilm formation by L. monocytogenes, major ingredients from methanol extract of dried red maple stems, Acer rubrum, were tested. The tested compositions included catechin, epicatechin, procyanidin A2, epicatechin gallate, nortrachelogenin (also known as pinopalustrin), and nortrachelogenin 8′-O-β-D-glucopyranoside (also known as nortrachelogenin-8′-O-beta-glucoside).
Other major ingredients of the maple methanol extract, including catechin, epicatechin, procyanidin A2, and epicatechin gallate had no effect.

In the case of `Oc1cc(O)c2c(c1)O[C@H](c1ccc(O)c(O)c1)[C@H](O)C2` [epicatechin], the antibiofilm activity entry is “no effect”.

Regarding `O=C(O[C@@H]1Cc2c(O)cc(O)cc2O[C@@H]1c1ccc(O)c(O)c1)c1cc(O)c(O)c(O)c1` [epicatechin gallate], the antibiofilm activity result was “no effect”.

Turning to `Oc1cc(O)c2c(c1)O[C@@]1(c3ccc(O)c(O)c3)Oc3cc(O)c4c(c3[C@@H]2[C@H]1O)O[C@H](c1ccc(O)c(O)c1)[C@H](O)C4` [procyanidin A2], the antibiofilm activity entry is listed as “no effect”.

Regarding catechin, the antibiofilm activity result is on record as “no effect”.

Take `COc1cc(CC2COC(=O)C2(O)Cc2ccc(O)c(OC)c2)ccc1O` (centres unmarked) [nortrachelogenin]: the antibiofilm activity result is reported as “no significant antibiofilm activity”.
